Laboratory results as given in patent US11773051B2, “S-enantiomers of beta-hydroxybutyrate and butanediol and methods for using same” (Buck Institute for Research on Aging, priority 2017, dated 2023).

Tests used:
[1] = test system: T1, histone deacetylases (HDAC); experiment: in vitro HDAC assay, commercial assay kit Fluor de Lys Green from Enzo; type: biochemical; details: sodium salt
T1 construct: other: sodium salt; same assay as S-BHB
Procedure: (§1) The activity of S-BHB and R-BHB enantiomers in inhibiting histone deacetylases was tested.
(§2) This is an in vitro HDAC assay performed using the sodium salt of S-BHB and R-BHB with a commercial assay kit, Fluor de Lys Green from Enzo.
(§3) Without being bound to a particular theory, it is believed the R-BHB might be being metabolized more rapidly than the S-BHB resulting in the diminished maximum inhibition.

[2] = test system: histone deacetylases (HDAC); experiment: as above; type: biochemical; details: comparison with literature value
Procedure: as §1, §2, §3

| inhibition of deacetylase activity (result in words) ([1]; FIG. 2) | IC50 ([1]; FIG. 2, read-out: HDAC activity inhibition IC50) [mM] | SMILES | maximum inhibition of HDAC activity ([1]; same assay as S-BHB, partial inhibition) | potency for HDAC inhibition relative to potency of R-BHB in a different, previously published assay (Shimazu et al. 2013) [2] [fold] |
| --- | --- | --- | --- | --- |
|  |  | C[C@@H](O)CC(=O)O [R-BHB, reference compound] | about 50% |  |
| dose-dependent inhibition | 7.3 | C[C@H](O)CC(=O)O [S-BHB, S-beta-hydroxybutyrate] |  | ≤ 2 |
